What all share (assay type): cell-based
For test [1], the target named is T1, human TLR7 (Homo sapiens, UniProt Q9NYK1).
T1 construct: host or cells: HEK-Blue cells
T1 sequence (Q9NYK1 27-1049): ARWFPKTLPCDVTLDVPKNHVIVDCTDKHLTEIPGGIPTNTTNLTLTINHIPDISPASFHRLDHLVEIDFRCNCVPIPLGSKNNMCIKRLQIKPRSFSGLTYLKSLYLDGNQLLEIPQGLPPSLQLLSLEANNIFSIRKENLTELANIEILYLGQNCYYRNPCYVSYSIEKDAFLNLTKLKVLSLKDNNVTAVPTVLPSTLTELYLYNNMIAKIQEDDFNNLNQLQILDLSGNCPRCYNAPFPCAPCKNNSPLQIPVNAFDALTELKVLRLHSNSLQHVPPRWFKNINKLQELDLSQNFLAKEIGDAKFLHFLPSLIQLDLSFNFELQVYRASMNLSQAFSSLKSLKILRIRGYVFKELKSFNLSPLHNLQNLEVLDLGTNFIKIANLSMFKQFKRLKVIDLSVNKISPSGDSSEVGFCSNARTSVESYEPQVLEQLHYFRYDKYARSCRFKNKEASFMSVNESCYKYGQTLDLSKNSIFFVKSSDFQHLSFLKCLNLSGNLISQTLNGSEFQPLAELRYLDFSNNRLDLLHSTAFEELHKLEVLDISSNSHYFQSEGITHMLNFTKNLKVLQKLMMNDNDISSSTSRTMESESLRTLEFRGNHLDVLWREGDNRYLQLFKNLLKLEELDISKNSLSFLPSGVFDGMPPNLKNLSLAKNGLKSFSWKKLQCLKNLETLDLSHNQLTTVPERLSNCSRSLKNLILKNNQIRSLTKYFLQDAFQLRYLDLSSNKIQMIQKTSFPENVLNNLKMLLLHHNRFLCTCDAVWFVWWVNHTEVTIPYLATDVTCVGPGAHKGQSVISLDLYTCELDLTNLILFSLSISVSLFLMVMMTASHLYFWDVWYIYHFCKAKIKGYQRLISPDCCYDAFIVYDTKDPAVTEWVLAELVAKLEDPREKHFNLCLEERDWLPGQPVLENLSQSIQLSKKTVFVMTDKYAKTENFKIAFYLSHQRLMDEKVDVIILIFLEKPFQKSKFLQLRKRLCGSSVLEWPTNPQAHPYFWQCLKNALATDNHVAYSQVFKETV
In words: TLR7 inhibition reporter assay (HEK-Blue SEAP). The note with it: HEK-Blue cells overexpressing human TLR7, stimulated with gardiquimod 7.5 μM, 22 hour incubation. Here is the method:
(§1) TLR7/8/9 Inhibition Reporter Assays
(§2) HEK-Blue™-cells (Invivogen) overexpressing human TLR7, TLR8 or TLR9 receptors were used for screening inhibitors of these receptors using an inducible SEAP (secreted embryonic alkaline phosphatase) reporter gene under the control of the IFN-β minimal promoter fused to five NF-κB and AP-1-binding sites. Briefly, cells are seeded into Greiner 384 well plates (15000 cells per well for TLR7, 20,000 for TLR8 and 25,000 for TLR9) and then treated with test compounds in DMSO to yield a final dose response concentration range of 0.05 nM to 50 μM. After a 30 minute compound pre-treatment at room temperature, the cells are then stimulated with a TLR7 ligand (gardiquimod at a final concentration of 7.5 μM), TLR8 ligand (R848 at a final concentration of 15.9 μM) or TLR9 ligand (ODN2006 at a final concentration of 5 nM) to activate NF-κB and AP-1 which induce the production of SEAP. After a 22 hour incubation at 37° C., 5% CO2, SEAP levels are determined with the addition of HEK-Blue™ Detection reagent (Invivogen), a cell culture medium that allows for detection of SEAP, according to manufacturer's specifications. The percent inhibition is determined as the % reduction in the HEK-Blue signal present in wells treated with agonist plus DMSO alone compared to wells treated with a known inhibitor.
(In a reporter assay the amount or activity of a reporter protein is the signal.)

For test [2], the target named is T2, human TLR8 (Homo sapiens, UniProt Q9NR97).
T2 construct: host or cells: HEK-Blue cells
T2 sequence (Q9NR97 27-1041): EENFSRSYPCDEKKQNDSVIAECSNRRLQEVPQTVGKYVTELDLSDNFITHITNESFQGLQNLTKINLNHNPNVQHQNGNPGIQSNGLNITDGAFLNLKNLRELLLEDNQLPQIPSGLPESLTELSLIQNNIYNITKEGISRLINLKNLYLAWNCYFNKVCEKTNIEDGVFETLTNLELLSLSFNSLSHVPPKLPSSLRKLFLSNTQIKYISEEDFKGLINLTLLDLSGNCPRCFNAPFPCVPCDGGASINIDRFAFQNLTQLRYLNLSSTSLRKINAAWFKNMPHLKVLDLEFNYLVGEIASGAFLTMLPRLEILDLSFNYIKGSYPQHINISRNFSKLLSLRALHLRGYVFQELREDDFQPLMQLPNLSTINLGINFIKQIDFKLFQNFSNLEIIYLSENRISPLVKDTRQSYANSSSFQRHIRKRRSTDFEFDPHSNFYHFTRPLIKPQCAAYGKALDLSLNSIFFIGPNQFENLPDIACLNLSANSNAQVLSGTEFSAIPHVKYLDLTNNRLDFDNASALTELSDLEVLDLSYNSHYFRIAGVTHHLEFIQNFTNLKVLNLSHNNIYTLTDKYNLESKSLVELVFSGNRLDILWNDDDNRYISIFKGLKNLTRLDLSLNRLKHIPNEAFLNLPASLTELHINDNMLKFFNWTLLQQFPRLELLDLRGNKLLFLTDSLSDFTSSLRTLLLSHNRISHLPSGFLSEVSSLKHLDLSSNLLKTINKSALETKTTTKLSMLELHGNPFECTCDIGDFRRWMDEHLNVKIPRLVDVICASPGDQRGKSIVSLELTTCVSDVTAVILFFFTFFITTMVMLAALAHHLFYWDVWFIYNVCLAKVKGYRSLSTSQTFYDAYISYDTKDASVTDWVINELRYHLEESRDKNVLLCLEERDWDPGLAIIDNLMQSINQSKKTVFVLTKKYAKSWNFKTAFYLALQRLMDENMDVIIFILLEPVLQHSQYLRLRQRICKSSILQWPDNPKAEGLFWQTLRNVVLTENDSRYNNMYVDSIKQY
The test is described as follows: TLR8 inhibition reporter assay (HEK-Blue SEAP). The note with it: HEK-Blue cells overexpressing human TLR8, stimulated with R848 15.9 μM, 22 hour incubation. As for the experimental part: as §1, §2

Test [3] addresses T3, human TLR9 (Homo sapiens, UniProt Q9NR96).
T3 construct: host or cells: HEK-Blue cells
T3 sequence (Q9NR96 26-1032): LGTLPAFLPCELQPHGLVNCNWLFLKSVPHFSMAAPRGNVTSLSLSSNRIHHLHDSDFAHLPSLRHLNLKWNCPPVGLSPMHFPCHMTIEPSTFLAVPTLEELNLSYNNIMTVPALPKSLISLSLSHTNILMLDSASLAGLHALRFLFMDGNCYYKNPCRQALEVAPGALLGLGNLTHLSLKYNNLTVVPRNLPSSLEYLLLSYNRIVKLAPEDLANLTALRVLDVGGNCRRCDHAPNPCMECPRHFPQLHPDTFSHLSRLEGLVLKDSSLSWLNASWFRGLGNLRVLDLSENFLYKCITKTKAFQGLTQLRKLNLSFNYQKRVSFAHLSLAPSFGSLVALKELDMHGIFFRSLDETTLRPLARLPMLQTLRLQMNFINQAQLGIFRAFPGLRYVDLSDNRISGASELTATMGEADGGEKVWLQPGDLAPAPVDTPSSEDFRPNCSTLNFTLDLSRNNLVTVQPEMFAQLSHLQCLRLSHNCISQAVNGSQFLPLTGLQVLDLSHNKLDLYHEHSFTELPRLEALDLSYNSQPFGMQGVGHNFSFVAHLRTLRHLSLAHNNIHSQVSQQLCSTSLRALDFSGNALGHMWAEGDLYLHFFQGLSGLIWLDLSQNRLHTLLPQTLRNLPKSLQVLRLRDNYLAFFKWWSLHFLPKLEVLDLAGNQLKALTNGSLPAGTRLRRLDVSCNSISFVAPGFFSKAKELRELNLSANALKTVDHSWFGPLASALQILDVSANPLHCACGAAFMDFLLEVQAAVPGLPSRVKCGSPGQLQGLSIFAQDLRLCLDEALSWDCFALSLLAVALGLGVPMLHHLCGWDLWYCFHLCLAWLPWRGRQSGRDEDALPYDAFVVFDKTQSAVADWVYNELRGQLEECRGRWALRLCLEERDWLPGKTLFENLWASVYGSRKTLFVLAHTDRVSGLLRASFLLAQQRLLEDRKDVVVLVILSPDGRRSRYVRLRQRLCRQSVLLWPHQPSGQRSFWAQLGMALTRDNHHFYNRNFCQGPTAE
In words: TLR9 inhibition reporter assay (HEK-Blue SEAP). The note with it: HEK-Blue cells overexpressing human TLR9, stimulated with ODN2006 5 nM, 22 hour incubation. As for the experimental part:
as §1, §2

Molecules are shown by their SMILES.

For orientation: IC50 means the concentration needed to halve the response being measured. High values mean lower potency, low ones higher potency.

As to `Cc1cc(-c2cc3[nH]nc(C4CCC(N5CC6(C5)CS(=O)(=O)C6)CC4)c3cc2C(C)C)cn2ncnc12` (single isomer, unassigned) [Example 143, 6-(4-(5-isopropyl-6-(8-methyl-[1,2,4]triazolo[1,5-a]pyridin-6-yl)-1H-indazol-3-yl)cyclohexyl)-2-thia-6-azaspiro[3.3]heptane 2,2-dioxide], the 50% inhibitory concentration (IC50) is 3.5 nM in test [1], 1.5 nM in test [2] and 6710 nM in test [3].
Consider `Cc1cc(-c2cc3[nH]nc(C4CCC(N5CCOCC5)CC4)c3cc2C(C)C)cn2ncnc12` (stereo not drawn) [Example 132, 4-(4-(5-isopropyl-6-(8-methyl-[1,2,4]triazolo[1,5-a]pyridin-6-yl)-1H-indazol-3-yl)cyclohexyl)morpholine], for which the figures for the IC50 in test [1], in test [2] and in test [3] were 0.9 nM, 0.1 nM and 5430 nM, respectively.
The like results for `Cc1cc(-c2cc(C)c3ncnn3c2)cc2[nH]nc(OCCN(C)C)c12` [Example 173, N,N-dimethyl-2-((4-methyl-6-(8-methyl-[1,2,4]triazolo[1,5-a]pyridin-6-yl)-1H-indazol-3-yl)oxy)ethan-1-amine] were, in that order, 18.9 nM, 8 nM and 1850 nM.
The like results for `Cc1cc2c(C3CCC(N(C)C4COC4)CC3)n[nH]c2cc1-c1cc(C)c2ncnn2c1` (single isomer, unassigned) [Example 32, N-methyl-N-(4-(5-methyl-6-(8-methyl-[1,2,4]triazolo[1,5-a]pyridin-6-yl)-1H-indazol-3-yl)cyclohexyl)oxetan-3-amine] were, in that order, 18.3 nM, 0.3 nM and 4440 nM.
With `Cc1cc2c(C3CCN(CCNS(C)(=O)=O)CC3)n[nH]c2cc1-c1cc(C)c2ncnn2c1` [Example 69, N-(2-(4-(5-methyl-6-(8-methyl-[1,2,4]triazolo[1,5-a]pyridin-6-yl)-1H-indazol-3-yl)piperidin-1-yl)ethyl) methanesulfonamide], the 50% inhibitory concentration (IC50) turned out to be 18 nM in test [1], 1.4 nM in test [2] and 1310 nM in test [3].
The like results for `Cc1cc2c(C3CCNCC3)c[nH]c2cc1-c1cc(C)c2ncnn2c1` [Example 1, 8-methyl-6-(5-methyl-3-(piperidin-4-yl)-1H-indol-6-yl)-[1,2,4]triazolo[1,5-a]pyridine] were, in that order, 4.1 nM, 3.9 nM and 657 nM.
In the case of `Cc1cc(-c2ccc3c(C(=O)NC4CCNCC4)c[nH]c3c2)cn2ncnc12` [Example 198, 6-(8-methyl-[1,2,4]triazolo[1,5-a]pyridin-6-yl)-N-(piperidin-4-yl)-1H-indole-3-carboxamide], the concentration for half-maximal inhibition (IC50) is 493 nM in test [1], 590 nM in test [2] and 9210 nM in test [3].
With `CCc1cc(-c2cc(C)c3ncnn3c2)cc2[nH]nc(OC3CCC(N(C)C)CC3)c12` (single isomer, unassigned) [Example 168, 4-((4-ethyl-6-(8-methyl-[1,2,4]triazolo[1,5-a]pyridin-6-yl)-1H-indazol-3-yl)oxy)-N,N-dimethylcyclohexan-1-amine], the IC50 in test [1] was 1.9 nM; in test [2], 1.6 nM; in test [3] it was 2570 nM.
With `Cc1cc(-c2ccc3c(C4CCC(N(C)C)CC4)c[nH]c3c2)cn2ncnc12` (single isomer, unassigned) [Example 14, N,N-dimethyl-4-(6-(8-methyl-[1,2,4]triazolo[1,5-a]pyridin-6-yl)-1H-indol-3-yl)cyclohexan-1-amine], the figures for the IC50 in test [1], in test [2] and in test [3] were 80.6 nM, 115 nM and 3430 nM, respectively.
For the molecule `CCc1cc2c(C3CCN(C4CCOCC4)CC3)n[nH]c2cc1-c1cc(C)c2ncnn2c1` [Example 88, 6-(5-ethyl-3-(1-(tetrahydro-2H-pyran-4-yl)piperidin-4-yl)-1H-indazol-6-yl)-8-methyl-[1,2,4]triazolo[1,5-a]pyridine], the 50% inhibitory concentration (IC50) in test [1] was 3.7 nM; in test [2], 0.2 nM; in test [3] it was 14200 nM.
Consider `Cc1cc(-c2cc3[nH]nc(C4CCC(N5CC6(COC6)C5)CC4)c3cc2C(C)C)cn2ncnc12` (single isomer, unassigned) [Example 128, 6-(4-(5-isopropyl-6-(8-methyl-[1,2,4]triazolo[1,5-a]pyridin-6-yl)-1H-indazol-3-yl)cyclohexyl)-2-oxa-6-azaspiro[3.3]heptane], for which the concentration for half-maximal inhibition (IC50) was determined as 0.6 nM in test [1], 0.2 nM in test [2] and 9560 nM in test [3].

Source of the values: US12172995B2, “Substituted indole and indazole compounds” (BRISTOL-MYERS SQUIBB COMPANY, priority 2018, dated 2024).
